Measurements: PMC3919453 (Bioorganic & medicinal chemistry letters, 2013)

Columns and labels:
MOR = MOR (Rattus norvegicus, UniProt P33535); assay: agonist-stimulated [35S]GTPγS binding, MOR; settings: for efficacy at MOR (in words): [35S]GTPγS assay; for EC50 (nM) MOR: [35S]GTPγS binding, C6-MOR membranes, mean ± SEM, dns: does not stimulate
DOR = DOR (Rattus norvegicus, UniProt P33533); assay: agonist-stimulated [35S]GTPγS binding, DOR; settings: for EC50 (nM) DOR: [35S]GTPγS binding, C6-DOR membranes, dns: does not stimulate
KOR = KOR (Homo sapiens, UniProt P41145); assay: agonist-stimulated [35S]GTPγS binding, KOR; settings: for EC50 (nM) KOR: [35S]GTPγS binding, CHO-KOR membranes, mean ± SEM; for EC50 (nM) KOR / % stimulation KOR: dns: does not stimulate; for % stimulation KOR: percent maximal stimulation relative to standard agonist U69,593 at 10 µM
Sequence of KOR (P41145 whole entry): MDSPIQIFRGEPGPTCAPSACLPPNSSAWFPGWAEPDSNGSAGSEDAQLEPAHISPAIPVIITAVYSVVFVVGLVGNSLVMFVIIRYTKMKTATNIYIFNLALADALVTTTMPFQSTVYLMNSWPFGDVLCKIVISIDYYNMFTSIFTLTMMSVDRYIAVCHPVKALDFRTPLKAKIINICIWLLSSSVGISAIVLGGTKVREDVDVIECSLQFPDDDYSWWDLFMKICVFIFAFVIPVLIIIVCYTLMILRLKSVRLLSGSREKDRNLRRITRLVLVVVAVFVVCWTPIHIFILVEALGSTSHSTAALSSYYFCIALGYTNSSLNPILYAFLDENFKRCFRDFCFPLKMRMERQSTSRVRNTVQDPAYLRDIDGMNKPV

Sequence of DOR (P33533 whole entry): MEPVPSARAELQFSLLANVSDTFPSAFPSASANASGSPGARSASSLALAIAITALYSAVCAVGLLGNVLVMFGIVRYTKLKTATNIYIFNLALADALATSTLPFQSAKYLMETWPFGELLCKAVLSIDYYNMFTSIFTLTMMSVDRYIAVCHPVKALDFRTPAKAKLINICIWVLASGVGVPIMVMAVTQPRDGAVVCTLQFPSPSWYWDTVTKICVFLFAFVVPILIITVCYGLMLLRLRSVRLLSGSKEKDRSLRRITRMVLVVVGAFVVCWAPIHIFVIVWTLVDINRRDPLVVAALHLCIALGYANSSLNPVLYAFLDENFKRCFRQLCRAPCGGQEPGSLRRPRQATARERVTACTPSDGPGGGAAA
Sequence of MOR (P33535 whole entry): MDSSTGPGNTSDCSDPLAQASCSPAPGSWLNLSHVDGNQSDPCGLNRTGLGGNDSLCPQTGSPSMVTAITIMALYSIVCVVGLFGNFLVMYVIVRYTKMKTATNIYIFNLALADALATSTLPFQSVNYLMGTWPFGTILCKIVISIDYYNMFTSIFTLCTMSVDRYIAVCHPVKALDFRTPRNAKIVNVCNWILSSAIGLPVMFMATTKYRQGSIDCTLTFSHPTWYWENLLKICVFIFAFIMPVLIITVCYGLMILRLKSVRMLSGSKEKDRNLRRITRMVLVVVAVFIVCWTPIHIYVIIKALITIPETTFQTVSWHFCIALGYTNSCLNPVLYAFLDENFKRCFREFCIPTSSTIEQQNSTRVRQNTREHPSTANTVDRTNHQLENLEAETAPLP

## Cc1cc(O)cc(C)c1C[C@H](N)C(=O)N1CCC(Cc2ccccc2)c2ccccc21 (some centres unmarked) [Compound 2]
MOR
  efficacy at MOR (in words): no notable efficacy
  EC50 (nM) MOR: dns
DOR
  EC50 (nM) DOR: dns
KOR
  EC50 (nM) KOR: dns
  % stimulation KOR: dns

## Cc1cc(O)cc(C)c1C[C@H](N)C(=O)N1CCC(Cc2ccccc2)CC1 [Compound 3]
MOR
  efficacy at MOR (in words): lacked any efficacy
  EC50 (nM) MOR: dns
DOR
  EC50 (nM) DOR: dns
KOR
  EC50 (nM) KOR: dns
  % stimulation KOR: dns

## Cc1cc(O)cc(C)c1C[C@H](N)C(=O)N1CCC(CCCc2ccccc2)CC1 [Compound 4]
MOR
  efficacy at MOR (in words): weak partial agonist
DOR
  EC50 (nM) DOR: dns
KOR
  EC50 (nM) KOR: dns
  % stimulation KOR: dns

## Cc1cc(O)cc(C)c1C[C@H](N)C(=O)N1CCN(CCCc2ccccc2)CC1 [Compound 5]
DOR
  EC50 (nM) DOR: dns
KOR
  EC50 (nM) KOR: dns
  % stimulation KOR: dns

## Cc1cc(O)cc(C)c1C[C@H](N)C(=O)N1CCN(CCCc2cccc3ccccc23)CC1 [Compound 6]
MOR
  efficacy at MOR (in words): partial agonist profile
KOR
  % stimulation KOR: dns

## Cc1cc(O)cc(C)c1C[C@H](N)C(=O)N1CCN(C/C=C/c2cccc3ccccc23)CC1 [Compound 7]
MOR
  efficacy at MOR (in words): no efficacy
DOR; [35S]GTPγS assay
  efficacy at DOR (in words): no efficacy
KOR; [35S]GTPγS assay
  efficacy at KOR (in words): no efficacy
KOR
  % stimulation KOR: dns

## Cc1cc(O)cc(C)c1C[C@H](N)C(=O)N1CCN(CCC(c2ccccc2)c2ccccc2)CC1 [Compound 8]
MOR
  EC50 (nM) MOR: dns
DOR
  EC50 (nM) DOR: dns
KOR
  EC50 (nM) KOR: dns
  % stimulation KOR: dns

## Cc1cc(O)cc(C)c1C[C@H](N)C(=O)N1CCN(CCCCc2ccccc2)CC1 [Compound 9]
DOR
  EC50 (nM) DOR: dns
KOR
  EC50 (nM) KOR: dns

## Cc1cc(O)cc(C)c1C[C@H](N)C(=O)N1CCN(C/C=C/Cc2ccccc2)CC1 [Compound 10]
DOR
  EC50 (nM) DOR: dns

## Cc1cc(O)cc(C)c1C[C@H](N)C(=O)N1CCN(C/C=C\Cc2ccccc2)CC1 [Compound 11]
DOR
  EC50 (nM) DOR: dns

## Cc1cc(O)cc(C)c1C[C@H](N)C(=O)N1CCN(CCCCCc2ccccc2)CC1 [Compound 12]
DOR
  EC50 (nM) DOR: dns
